The target in one experiment is T1, human DP2 receptor (Homo sapiens, UniProt Q9Y5Y4).
T1 construct: expressed in transfected cells
T1 sequence (Q9Y5Y4 1-395): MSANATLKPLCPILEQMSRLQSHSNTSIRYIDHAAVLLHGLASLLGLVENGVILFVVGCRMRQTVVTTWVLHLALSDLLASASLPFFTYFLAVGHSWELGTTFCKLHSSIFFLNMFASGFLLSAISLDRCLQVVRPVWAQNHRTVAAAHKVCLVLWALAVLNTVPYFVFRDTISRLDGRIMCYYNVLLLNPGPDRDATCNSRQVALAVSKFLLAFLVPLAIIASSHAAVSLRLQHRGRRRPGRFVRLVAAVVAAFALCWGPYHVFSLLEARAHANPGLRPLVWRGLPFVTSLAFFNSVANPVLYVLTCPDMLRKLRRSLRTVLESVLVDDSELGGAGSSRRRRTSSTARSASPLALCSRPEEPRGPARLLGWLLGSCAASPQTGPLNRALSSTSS
Put plainly: DP2/CRTH2 radioligand binding assay ([3H]PGD2). Particulars: [3H]PGD2 binding, membranes of HEK293 cells expressing human DP2; read-out: hDP2. The procedure, abridged:
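Membranes from HEK293 cells stably expressing recombinant human DP2 incubated 60 min at room temperature with 1 nM [3H]PGD2 and compound in pH 7.4 Hepes/MnCl2/EDTA buffer, ± 0.2% human serum albumin. Bound radioactivity measured after filtration; non-specific binding defined with 10 μM PGD2. IC50 from titration curves.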

Experiment [1] deals with T2, recombinant human CRTH2 receptor (Homo sapiens, UniProt Q9Y5Y4).
T2 construct: expressed in transfected cells
T2 sequence (Q9Y5Y4 1-395): T1 sequence (Q9Y5Y4 1-395)
Put plainly: GTPγS binding assay. The class given is biochemical. Particulars: +HSA (0.2% human serum albumin), 80 nM PGD2, CHO cell membranes; read-out: hDP2 GTPγS μM (+HSA). The protocol: The ability of a compound to inhibit binding of GTP to DP2 is assessed via a membrane GTPγS assay. CHO cells stably expressing the recombinant human CRTH2 receptor are resuspended in 10 mM Hepes, 7.4 containing 1 mM DTT, lysed and centrifuged at 75,000×g to pellet the membranes. The membranes are resuspended in 10 mM Hepes, 7.4 containing 1 mM DTT and 10% glycerol. […] The reactions are terminated by rapid filtration through Whatman GF/B glass fibre filter plates. The filter plates are washed 3 times with 1 ml cold Assay Buffer and dried. Scintillant is then added to the plates and the radioactivity retained on the filters is determined on a Packard TopCount (Perkin Elmer). Specific binding is determined as total radioactive binding minus non-specific binding in the absence of the ligand (80 nM PGD2). IC50s were determined using Graphpad prism analysis of drug titration curves.
On the technique in general: GTPγS is a poorly hydrolysed GTP analogue; its binding reports G protein activation.

The target in another experiment is T3, human DP1 receptor (Homo sapiens, UniProt Q13258).
T3 construct: tissue Biological Specialty Corporation; host or cells: human platelet membranes
T3 sequence (Q13258 1-359): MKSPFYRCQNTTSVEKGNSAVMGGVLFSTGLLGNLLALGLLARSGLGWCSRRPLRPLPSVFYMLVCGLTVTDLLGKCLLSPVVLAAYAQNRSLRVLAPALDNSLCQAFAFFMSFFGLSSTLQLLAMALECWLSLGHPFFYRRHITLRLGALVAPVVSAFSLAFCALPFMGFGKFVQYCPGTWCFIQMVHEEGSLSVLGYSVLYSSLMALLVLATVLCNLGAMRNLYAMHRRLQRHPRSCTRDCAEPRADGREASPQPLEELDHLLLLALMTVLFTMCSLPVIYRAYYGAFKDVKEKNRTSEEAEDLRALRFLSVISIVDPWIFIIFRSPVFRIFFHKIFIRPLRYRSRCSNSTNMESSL
Description: DP1 radioligand binding assay ([3H]BWA868C, platelet membranes). Particulars: [3H]BWA868C binding, human platelet membranes; read-out: hDP1. The procedure, abridged: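 Human platelet membranes (20 μg protein/well) incubated 60 min at room temperature with 2 nM [3H]BWA868C and compound in 50 mM Hepes, 10 mM MnCl2, 1 mM EDTA, pH 7.4, ± 0.2% human serum albumin. Bound radioactivity measured after filtration; nonspecific binding defined with 10 μM BWA868C; IC50 from titration curves.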

Molecules are shown by their SMILES.

In the case of `CCN(Cc1cc(C(F)(F)F)ccc1-c1cc(F)cc(CC(=O)O)c1)C(=O)OCc1ccccc1` [Compound 1-126, {2′-[(Benzyloxycarbonyl-ethyl-amino)-methyl]-5-fluoro-4′-trifluoromethyl-biphenyl-3-yl}-acetic acid], the IC50 is less than 0.3 µM on human DP2 receptor, less than 0.3 µM in experiment [1] and 0.3 to 1 µM at human DP1 receptor.
For `CCN(Cc1cc(C(F)(F)F)ccc1-c1cc(CC(=O)O)ccc1OC)C(=O)Nc1ccccc1` [Compound 1-121, [2′-(1-Ethyl-3-phenyl-ureidomethyl)-6-methoxy-4′-trifluoromethyl-biphenyl-3-yl]-acetic acid], the results for the IC50 (on human DP2 receptor; in experiment [1]; on human DP1 receptor) were less than 0.3 µM, less than 0.3 µM and 1 to 30 µM, respectively.
`COc1ccc(CC(=O)O)cc1-c1ccc(C(F)(F)F)cc1CN(CCN(C)C)C(C)=O` [Compound 1-7, (2′-{[Acetyl-(2-dimethylamino-ethyl)-amino]-methyl}-6-methoxy-4′-trifluoromethyl-biphenyl-3-yl)-acetic acid]: the IC50 lay in the range of 0.3 to 1 µM at human DP2 receptor, 0.3 to 1 µM in experiment [1] and 1 to 30 µM on human DP1 receptor.
Take `CCN(Cc1cc(C(F)(F)F)ccc1-c1cc(CC(=O)O)ccc1OC)C(=O)N1CCCC1` [Compound 1-97, (2′-{[Ethyl-(pyrrolidine-1-carbonyl)-amino]-methyl}-6-methoxy-4′-trifluoromethyl-biphenyl-3-yl)-acetic acid]: the IC50 at human DP2 receptor was less than 0.3 µM; in experiment [1], less than 0.3 µM; at human DP1 receptor, 1 to 30 µM.
On to `CCN(Cc1cc(-c2cnn(C)c2)ccc1-c1cc(CC(=O)O)ccc1OC)C(=O)NCc1ccccc1` [Compound 1-234, [2′-(3-Benzyl-1-ethyl-ureidomethyl)-6-methoxy-4′-(1-methyl-1H-pyrazol-4-yl)-biphenyl-3-yl]-acetic acid], for which the IC50 (at human DP2 receptor; in experiment [1]) was less than 0.3 µM throughout.
Take `CCN(Cc1cc(C(F)(F)F)ccc1-c1cc(CC(=O)O)ccc1OC)S(=O)(=O)c1ccc(Cl)cc1` [Compound 1-100, (2′-{[(4-Chloro-benzenesulfonyl)-ethyl-amino]-methyl}-6-methoxy-4′-trifluoromethyl-biphenyl-3-yl)-acetic acid]: the IC50 on human DP2 receptor is less than 0.3 µM; in experiment [1], 1 to 30 µM; at human DP1 receptor it was 1 to 30 µM.
On to `CCN(Cc1cc(C(F)(F)F)ccc1-c1cc([C@@H](C)C(=O)O)ccc1OC)C(=O)C1CC1` [Compound 1-224, (R)-2-{2′-[(Cyclopropanecarbonyl-ethyl-amino)-methyl]-6-methoxy-4′-trifluoromethyl-biphenyl-3-yl}-propionic acid], for which the IC50 (at human DP2 receptor; in experiment [1]) was less than 0.3 µM each time.
Regarding `CCOc1ccc(-c2ccc(-c3cc(CC(=O)O)ccc3OC)c(CN(CC)C(=O)NCc3ccccc3)c2)cn1` [Compound 1-228, [2′-(3-Benzyl-1-ethyl-ureidomethyl)-4′-(6-ethoxy-pyridin-3-yl)-6-methoxy-biphenyl-3-yl]-acetic acid], the IC50 (on human DP2 receptor; in experiment [1]) was less than 0.3 µM in each case.
Turning to `CCN(Cc1cc(C(F)(F)F)ccc1-c1cc([C@@H](C)C(=O)O)cc(C(F)(F)F)c1)C(=O)C1CC1` [Compound 1-237, (R)-2-{2′-[(Cyclopropanecarbonyl-ethyl-amino)-methyl]-5,4′-bis-trifluoromethyl-biphenyl-3-yl}-propionic acid], the IC50 (at human DP2 receptor; in experiment [1]) was less than 0.3 µM in each case.
Regarding `CCN(Cc1cc(C(F)(F)F)ccc1-c1cc(C(C)C(=O)O)ccc1OC)C(=O)NCc1ccccc1` (centres unmarked) [Compound 1-222, 2-[2′-(3-Benzyl-1-ethyl-ureidomethyl)-6-methoxy-4′-trifluoromethyl-biphenyl-3-yl]-propionic acid], the IC50 (on human DP2 receptor; in experiment [1]) was less than 0.3 µM in each case.
As to `CCN(Cc1cc(-c2cnn(C)c2)ccc1-c1cc(CC(=O)O)ccc1OC)C(=O)C1CC1` [Compound 1-233, [2′-[(Cyclopropanecarbonyl-ethyl-amino)-methyl]-6-methoxy-4′-(1-methyl-1H-pyrazol-4-yl)-biphenyl-3-yl]-acetic acid], the IC50 (on human DP2 receptor; in experiment [1]) was less than 0.3 µM each time.
`CCN(Cc1cc(C(F)(F)F)ccc1-c1cc(C(C)(C)C(=O)O)ccc1OC)C(C)=O` [Compound 1-115, 2-{2′-[(Acetyl-ethyl-amino)-methyl]-6-methoxy-4′-trifluoromethyl-biphenyl-3-yl}-2-methyl-propionic acid]: the values for the IC50 at human DP2 receptor and on human DP1 receptor were greater than 30 µM and 1 to 30 µM, respectively.
For `CCN(Cc1ccc(C(F)(F)F)cc1-c1cc(CC(=O)O)ccc1OC)C(=O)OCc1ccc(F)cc1` [Compound 1-168, (2′-{[Ethyl-(4-fluoro-benzyloxycarbonyl)-amino]-methyl}-6-methoxy-5′-trifluoromethyl-biphenyl-3-yl)-acetic acid] the same measures were less than 0.3 µM and 0.3 to 1 µM.
For `CCN(Cc1cc(NS(=O)(=O)c2ccc(Cl)cc2)ccc1-c1cc(CC(=O)O)ccc1OC)C(=O)OCc1ccccc1` [Compound 1-156, [2′-[(Benzyloxycarbonyl-ethyl-amino)-methyl]-4′-(4-chloro-benzenesulfonylamino)-6-methoxy-biphenyl-3-yl]-acetic acid] the same measures were less than 0.3 µM and 1 to 30 µM.
The corresponding values for `CCN(Cc1cc(C(F)(F)F)ccc1-c1cc(Cl)cc(CC(=O)O)c1)C(=O)OC` [Compound 1-164, {5-Chloro-2′-[(ethyl-methoxycarbonyl-amino)-methyl]-4′-trifluoromethyl-biphenyl-3-yl}-acetic acid] are less than 0.3 µM and 1 to 30 µM.
Turning to `CCCN/C(=N\C#N)N(CC)Cc1cc(C(F)(F)F)ccc1-c1cc(CC(=O)O)ccc1OC` [Compound 1-145, [2′-(N′-Cyano-N-ethyl-N″-propyl-guanidinomethyl)-6-methoxy-4′-trifluoromethyl-biphenyl-3-yl]-acetic acid], the IC50 on human DP2 receptor is less than 0.3 µM; at human DP1 receptor, 1 to 30 µM.
The corresponding values for `CCN(Cc1cc(C(F)(F)F)ccc1-c1cc(CC(=O)O)ccc1-c1ccccc1)C(=O)OCc1ccccc1` [Compound 1-144, {2″-[(Benzyloxycarbonyl-ethyl-amino)-methyl]-4″-trifluoromethyl-[1,1′;2′,1″]terphenyl-4′-yl}-acetic acid] are less than 0.3 µM and 0.3 to 1 µM.
For `CCN(Cc1cc(C(F)(F)F)ccc1-c1cc(Cl)cc(CC(=O)O)c1)C(=O)NCc1ccccc1` [Compound 1-157, [2′-(3-Benzyl-1-ethyl-ureidomethyl)-5-chloro-4′-trifluoromethyl-biphenyl-3-yl]-acetic acid] the same measures were less than 0.3 µM and 1 to 30 µM.
The corresponding values for `CCN(Cc1cc(C(F)(F)F)ccc1-c1cc(CC#N)ccc1OC)C(=O)C1CC1` [Compound 2-3, Cyclopropanecarboxylic acid (5′-cyanomethyl-2′-methoxy-4-trifluoromethyl-biphenyl-2-ylmethyl)-ethyl-amide] are greater than 30 µM and 1 to 30 µM.
`CCN(Cc1ccc(C(F)(F)F)cc1-c1cc(CC(=O)O)ccc1OC)C(=O)C1CC1` [Compound 1-170, {2′-[(Cyclopropanecarbonyl-ethyl-amino)-methyl]-6-methoxy-5′-trifluoromethyl-biphenyl-3-yl}-acetic acid]: the values for the IC50 on human DP2 receptor and on human DP1 receptor were less than 0.3 µM and 1 to 30 µM, respectively.
The corresponding values for `CCN(Cc1cc(C(F)(F)F)ccc1-c1cc(CC(=O)O)cc(C(F)(F)F)c1)C(C)=O` [Compound 1-138, {2′-[(Acetyl-ethyl-amino)-methyl]-5,4′-bis-trifluoromethyl-biphenyl-3-yl}-acetic acid] are less than 0.3 µM and 1 to 30 µM.

These data come from patent publication US8067445B2, “N,N-disubstituted aminoalkylbiphenyl antagonists of prostaglandin D2 receptors” (Panmira Pharmaceuticals, LLC, priority 2008, dated 2011).
